Results as given in the CheMixHub viscosity set.
Several values for one entry are separate records, joined by “and”; a condition that tells them apart may be missing. Identical values can stand only once.

Test: xn = mol fraction of the nth substance listed

CCCCC + CCCCCC
298.15 K, 101.33 kPa
Conditions | viscosity [mPa·s]
x1 = 0.1045 | 0.2898
x1 = 0.2098 | 0.2802
x1 = 0.3107 | 0.2724
x1 = 0.4113 | 0.2641
x1 = 0.5105 | 0.2574
x1 = 0.6025 | 0.2497
x1 = 0.7041 | 0.2432
x1 = 0.7966 | 0.2364
x1 = 0.8997 | 0.228

CCCCCCCO + CCCCCC
viscosity [mPa·s], 101.33 kPa
Conditions | 303.15 K | 313.15 K
x1 = 0.0308 | 0.2866 | 0.2693
x1 = 0.0919 | 0.3254 | 0.294
x1 = 0.1567 | 0.3966 | 0.3446
x1 = 0.2496 | 0.5095 | 0.4493
x1 = 0.4018 | 0.7642 | 0.6611
x1 = 0.4831 | 0.9566 | 0.7663
x1 = 0.578 | 1.248 | 0.9882
x1 = 0.6838 | 1.776 | 1.348
x1 = 0.7882 | 2.479 | 1.832
x1 = 0.8946 | 3.522 | 2.473
x1 = 0.9642 | 4.384 | 3.175

C1CCCCCCC1 + CCCCCCC
Conditions | viscosity [mPa·s]
308.15 K, 101 kPa, x2 = 0.1897 | 1.125

CCCCC + CCCCCCC
298.15 K, 101.33 kPa
Conditions | viscosity [mPa·s]
x1 = 0.1046 | 0.3691
x1 = 0.2024 | 0.3579
x1 = 0.3087 | 0.3325
x1 = 0.4077 | 0.3173
x1 = 0.4979 | 0.3004
x1 = 0.5999 | 0.2848
x1 = 0.6624 | 0.2762
x1 = 0.7972 | 0.254
x1 = 0.8929 | 0.242

CCCCCCCCCC + CCCCCCC
Conditions | viscosity
293.15 K, 100 kPa, x1 = 0.3 | 0.506 mPa·s
293.15 K, 101.33 kPa, x2 = 0.321 | 0.725 mPa·s
293.15 K, 101.33 kPa, x2 = 0.587 | 0.584 mPa·s
293.15 K, 101.33 kPa, x2 = 0.81 | 0.489 mPa·s
294.62 K, 101.3 kPa, x2 = 0.49 | 0.64 mPa·s
298.15 K, 101.33 kPa, x2 = 0.0985 | 0.8051 mPa·s
298.15 K, 101.33 kPa, x2 = 0.2017 | 0.745 mPa·s
298.15 K, 101.33 kPa, x2 = 0.3053 | 0.6806 mPa·s
298.15 K, 101.33 kPa, x2 = 0.4073 | 0.6363 mPa·s
298.15 K, 101.33 kPa, x2 = 0.5076 | 0.5891 mPa·s
298.15 K, 101.33 kPa, x2 = 0.6069 | 0.5466 mPa·s
298.15 K, 101.33 kPa, x2 = 0.7083 | 0.4983 mPa·s
298.15 K, 101.33 kPa, x2 = 0.8023 | 0.4575 mPa·s
298.15 K, 101.33 kPa, x2 = 0.903 | 0.4242 mPa·s
303.11 K, 100 kPa, x2 = 0.77 | 0.4628 mPa·s and 0.4626 mPa·s
303.15 K, 101.3 kPa, x2 = 0.77 | 0.4628 mPa·s
303.17 K, 100 kPa, x2 = 0.49 | 0.5761 mPa·s and 0.5762 mPa·s
303.17 K, 101.3 kPa, x2 = 0.49 | 0.5761 mPa·s
313.11 K, 101.3 kPa, x2 = 0.49 | 0.5111 mPa·s
313.15 K, 100 kPa, x1 = 0.3 | 0.393 mPa·s
313.18 K, 101.3 kPa, x2 = 0.77 | 0.4127 mPa·s
323.15 K, 100 kPa, x2 = 0.49 | 0.4588 mPa·s
323.15 K, 101.3 kPa, x2 = 0.49 | 0.4588 mPa·s

CCCCCCCO + CCCCCCC
viscosity [mPa·s], 101.33 kPa
Conditions | 298.15 K | 303.15 K | 308.15 K | 313.15 K
x1 = 0.0373 | – | 0.402 | – | 0.3519
x1 = 0.0508 | 0.4239 | – | 0.3784 | –
x1 = 0.1004 | 0.4638 | – | 0.4111 | –
x1 = 0.104 | – | 0.469 | – | 0.4152
x1 = 0.1707 | – | 0.543 | – | 0.4918
x1 = 0.2012 | 0.5765 | – | 0.5039 | –
x1 = 0.2845 | – | 0.703 | – | 0.6087
x1 = 0.3013 | 0.7282 | – | 0.6241 | –
x1 = 0.4001 | 0.946 | – | 0.7914 | –
x1 = 0.4114 | – | 0.901 | – | 0.7971
x1 = 0.4992 | 1.243 | – | 1.023 | –
x1 = 0.5113 | – | 1.21 | – | 0.9558
x1 = 0.5981 | 1.702 | – | 1.346 | –
x1 = 0.62 | – | 1.671 | – | 1.318
x1 = 0.699 | 2.261 | – | 1.821 | –
x1 = 0.7301 | – | 2.236 | – | 1.681
x1 = 0.8089 | – | 2.801 | – | 2.082
x1 = 0.85 | 3.616 | – | 2.806 | –
x1 = 0.9029 | – | 3.742 | – | 2.728
x1 = 0.9456 | 4.749 | – | 3.608 | –
x1 = 0.9699 | – | 4.553 | – | 3.322
